# Test results published in US6608078B2, “Antibacterial chiral 8-(substituted piperidino)-benzo [i,j] quinolizines, processes, compositions and methods of treatment” (Wockhardt Limited, priority 2000, dated 2003).
# Key:
# Format in all cases: cell-based
# E. coli = assay: In-vitro antimicrobial test (MIC, NCCLS protocol); conditions: standard NCCLS protocol
# Source text: (§1) The activity of the compounds of the invention in-vitro can be illustrated as follows:
# (§2) The test method was in accordance with the standard NCCLS protocol.
# P. aeruginosa = assay: In-vitro antimicrobial test (MIC, NCCLS protocol); conditions: standard NCCLS protocol
# Source text: as §1, §2
# VRE = assay: In-vitro antimicrobial test (MIC, NCCLS protocol); conditions: standard NCCLS protocol
# Source text: as §1, §2
# MRSA = assay: In-vitro antimicrobial test (MIC, NCCLS protocol); conditions: standard NCCLS protocol
# Source text: as §1, §2
# S. pneumoniae = assay: In-vitro antimicrobial test (MIC, NCCLS protocol); conditions: standard NCCLS protocol
# Source text: as §1, §2
# S. pneumoniae ATCC 6303 = assay: % Killing of Streptococci at 4 MIC, 8 hrs
# Source text: (§3) Comparison of a typical compound of the invention vs S-(−)-9-fluoro-8-(4′-hydroxypiperidin-1-yl)-5-methyl-6,7-dihydro-1-oxo-1H-5H-benzo[i,j]quinolizine-2-carboxylic acid in terms of % Killing of Streptococci
# (§4) As against this, a typical compound of the invention, which has an improved bactericidal power againt streptococci, consistently brings about killing of 99% of streptococcal population.
# S. pyogenes ATCC 25147 = assay: % Killing of Streptococci at 4 MIC, 8 hrs
# Source text: as §3, §4
# S. sanguis ATCC 10556 = assay: % Killing of Streptococci at 4 MIC, 8 hrs
# Source text: as §3, §4
# S. salivarius ATCC 13419 = assay: % Killing of Streptococci at 4 MIC, 8 hrs
# Source text: as §3, §4
# streptococcal population = assay: % Killing of Streptococci, summary over strains; conditions: exposed to 4×MIC concentrations for 8 hours; depending upon the streptococcal strain
# Source text: as §3, §4
SMILES,MIC (E. coli),MIC (P. aeruginosa),MIC (VRE),MIC (MRSA),MIC (S. pneumoniae),4 MIC-% Kill at 8 hrs. (S. pneumoniae ATCC 6303),4 MIC-% Kill at 8 hrs. (S. pyogenes ATCC 25147),4 MIC-% Kill at 8 hrs. (S. sanguis ATCC 10556),4 MIC-% Kill at 8 hrs. (S. salivarius ATCC 13419),killing of streptococcal population (streptococcal population)
CC1CN(c2c(F)cc3c(=O)c(C(=O)O)cn4c3c2CC[C@@H]4C)CCC1O (mixture of isomers) [Compound B],0.2 µg/mL,6.25 µg/mL,6.25 µg/mL,0.8 µg/mL,0.2 µg/mL,–,–,–,–,–
"C[C@@H]1CN(c2c(F)cc3c(=O)c(C(=O)O)cn4c3c2CC[C@@H]4C)CC[C@@H]1O (relative stereo) [Compound D, S-(−)-9-fluoro-6,7-dihydro-8-{cis-(+)-4-S-hydroxy-3-R-methylpiperidin-1-yl}-5-methyl-1-oxo-1H,5H-benzo[i,j]quinolizine-2-carboxylic acid]",0.2 µg/mL,6.25 µg/mL,6.25 µg/mL,0.8 µg/mL,0.8 µg/mL,–,–,–,–,–
"C[C@H]1CCc2c(N3CCC(O)CC3)c(F)cc3c(=O)c(C(=O)O)cn1c23 [Ref. 2, S-(−)-9-fluoro-8-(4′-hydroxypiperidin-1-yl)-5-methyl-6,7-dihydro-1-oxo-1H-5H-benzo[i,j]quinolizine-2-carboxylic acid, reference compound]",0.2 µg/mL,3.12 µg/mL,6.25 µg/mL,0.8 µg/mL,0.2 µg/mL,50%,45.4%,40%,0%,≤ 50%
"CC1CN(c2c(F)cc3c(=O)c(C(=O)O)cn4c3c2CC[C@@H]4C)CCC1O (stereo partly drawn) [Typical compound of the invention, S-(-)-9-fluoro-6,7-dihydro-8-(4-hydroxy-3-methylpiperidin-1-yl)-5-methyl-1-oxo-1H,5H-benzo[i,j]quinolizine-2-carboxylic acid]",–,–,–,–,–,99.8%,98.4%,98.6%,99.7%,99%

# Continued, in another order:
MIC (E. coli),MIC (P. aeruginosa),MIC (VRE),MIC (MRSA),MIC (S. pneumoniae),SMILES,4 MIC-% Kill at 8 hrs. (S. pneumoniae ATCC 6303),4 MIC-% Kill at 8 hrs. (S. pyogenes ATCC 25147),4 MIC-% Kill at 8 hrs. (S. sanguis ATCC 10556),4 MIC-% Kill at 8 hrs. (S. salivarius ATCC 13419),killing of streptococcal population (streptococcal population)
0.2 µg/mL,3.12 µg/mL,6.25 µg/mL,0.4 µg/mL,0.2 µg/mL,"CC1CN(c2c(F)cc3c(=O)c(C(=O)O)cn4c3c2CC[C@@H]4C)CCC1O (mixture of isomers) [Compound A, S-(−)-9-fluoro-6,7-dihydro-8-{trans-4-(RS)-hydroxy-3-(RS)-methylpiperidin-1-yl}-5-methyl-1-oxo-1H,5H-benzo[i,j]quinolizine-2-carboxylic acid]",–,–,–,–,–
0.4 µg/mL,6.25 µg/mL,12.5 µg/mL,1.56 µg/mL,0.4 µg/mL,"CC1CCc2c(N3CCC(O)CC3)c(F)cc3c(=O)c(C(=O)O)cn1c23 (racemic) [Ref. 1, RS(±)-9-fluoro-8-(4′-hydroxypiperidin-1-yl)-5-methyl-6,7-dihydro-1-oxo-1H-5H-benzo[i,j]quinolizine-2-carboxylic acid, reference compound]",–,–,–,–,–
0.1 µg/mL,6.25 µg/mL,6.25 µg/mL,0.8 µg/mL,0.1 µg/mL,"C[C@H]1CN(c2c(F)cc3c(=O)c(C(=O)O)cn4c3c2CC[C@@H]4C)CC[C@H]1O (relative stereo) [Compound C, S-(−)-9-fluoro-6,7-dihydro-8-{cis-(−)-4-R-hydroxy-3-S-methylpiperidin-1-yl}-5-methyl-1-oxo-1H,5H-benzo[i,j]quinolizine-2-carboxylic acid]",–,–,–,–,–
0.8 µg/mL,>12.5 µg/mL,12.5 µg/mL,1.56 µg/mL,0.2 µg/mL,"CCC1CN(c2c(F)cc3c(=O)c(C(=O)O)cn4c3c2CC[C@@H]4C)CCC1O (stereo partly drawn) [Compound E, S-(−)-9-fluoro-6,7-dihydro-8-(3-ethyl-4-hydroxypiperidin-1-yl)-5-methyl-1-oxo-1H,5H-benzo[i,j]quinolizine-2-carboxylic acid]",–,–,–,–,–
